Experimental data taken from PMC5667507, “A novel ^18F-labelled high affinity agent for PET imaging of the translocator protein” (Chemical Science, 2015).

Key:
[1] = test system: TSPO; experiment: Ex vivo autoradiography, U87MG-Luc2 orthotopic glioma bearing mice; assay type: in vivo, mouse
Description: To investigate the behavior of [^18F]-AB5186 6 in vivo, ex vivo autoradiography was performed using mice bearing a U87MG-Luc2 orthotopic model of human glioblastoma. Animals were pre-treated with either vehicle (n = 4) or 1 mg kg^–1 unlabelled PK11195 (n = 4) administered intravenously 10 min prior to [^18F]-AB5186 6 intravenous injection. Animals were killed and brains were removed 20 min after the radiotracer was given and frozen. Cryostat sections were then used to generate autoradiograms. […] The non-tumour bearing contralateral side of the brain lacked proliferating cells and minimal TSPO expression and immunolabelled microglia were visible (data not shown). Under normal circumstances microglia express low levels of TSPO in the brain. […]
temperature. Non-specific binding was determined in adjacent sections by incubating with [18F]- AB5186 6 in the presence of 10 µM PK11195 (Tocris, UK). […]
Following this, the tissues were washed with 0.1% Tween® 20 in TBS (2 × 5 min) and a secondary one hour incubation at room temperature was performed using Dako horseradish-peroxidase labelled anti-mouse or anti-rabbit polymers. The sections were once again washed using 0.1% Tween® 20 in TBS (2 × 5 min) and the presence of antibody was detected using the 3,3’- diaminobenzidine chromagen solution diluted in Dako DAB+ substrate buffer. […]

[2] = Metabolite analysis of arterial blood samples from baboon (parent fraction); assay type: in vivo, baboon (Papio anubis); settings: baboon arterial plasma, 60 minutes post-injection
Description: Following PET reconstruction and co-registration to an MRI (Fig. 7a), a time–activity curve for the tracer in the whole brain was established (Fig. 7b). […]
generated and SUV determined as the concentration in the VOI divided by the injected dose divided […]
software (GraphPad Softare Inc).
Arterial blood samples were collected from the baboon every 45 s until 6 min after injection of […]
exception of the samples collected for metabolite analysis (3.5 mL each), all blood samples were 1 mL each. Samples for metabolite analysis were collected at 6, 15, 30, 60, 120, 150 and 240 min after radiotracer bolus injection. After blood collection, all samples were kept on ice until analysed.
Radioactivity in whole blood and plasma was assessed with a well-type γ-counter using a 400–1400 keV window (Perkin Elmer Wallac 2480, USA). Plasma samples were processed by acetonitrile denaturation and analysed by HPLC on a Luna C18 column with a mobile phase of MeOH/H2O-Et3N (0.2%) 80/20 at a flow rate of 4 mL/min to estimate the parent fraction.

CCN(CC)C(=O)c1nc2ccccc2c(-c2ccccc2)c1C[18F] [[^18F]-AB5186 6]
binding (tumour to contralateral optical density ratio) after PK11195 blockade ([1]; 1 mg kg^-1 unlabelled PK11195 i.v. 10 min before tracer, P = 0.0002): significantly reduced | total binding, tumour tissue compared to contralateral region ([1]; ex vivo autoradiography, vehicle pre-treatment, brains removed 20 min after tracer i.v.): substantially higher | parent still intact [2]: 29.8%
